# In patent publication US4492711A, “Benzamides, their salts, and pharmaceutical compositions containing them” (SANOFI, priority 1982, dated 1985):
# How the values were obtained:
# [1] = biological target: T1, gastric histamine H2 receptors (Rattus norvegicus, UniProt P25102); assay: Antagonism of gastric hypersecretion induced by histamine in the atropinized rat (Ghosh and Schild modified according to Black et al.); assay type: in vivo; settings: intravenous; for Relative potency (cimetidine = 1): ID50-based, compared to cimetidine; for ED50: single dose, histamine i.v. infusion 15 mcmol/kg/hour, read-out: ID50 (dose which inhibits by 50% the gastric hypersecretion induced by histamine)
# T1 construct: the gastric secretion is measured by perfusion of a physiological solution at a constant speed in the stomach of the animal; from tissue; host or cells: stomach of the living atropinized rat (in vivo, perfused stomach)
# T1 sequence (P25102 whole entry, the tested form may be a part): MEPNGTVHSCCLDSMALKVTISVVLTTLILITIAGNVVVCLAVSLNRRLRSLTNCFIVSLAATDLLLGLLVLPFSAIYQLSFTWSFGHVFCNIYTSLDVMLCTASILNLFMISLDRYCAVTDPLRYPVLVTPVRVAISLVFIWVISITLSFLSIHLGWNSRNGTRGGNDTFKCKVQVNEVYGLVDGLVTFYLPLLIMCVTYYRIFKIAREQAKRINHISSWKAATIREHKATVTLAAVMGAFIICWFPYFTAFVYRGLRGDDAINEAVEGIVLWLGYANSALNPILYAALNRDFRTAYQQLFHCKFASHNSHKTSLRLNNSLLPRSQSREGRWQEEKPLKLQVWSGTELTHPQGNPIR
# Experimental: According to this test, a gastric acid hypersecretion is induced by intravenous infusion of a sub-maximal dose of histamine equivalent to 15 mcmol/kg/hour and the gastric secretion is measured by perfusion of a physiological solution at a constant speed in the stomach of the animal.
# The ID50 represents the index of the gastric H2 -blocking action.
# gastric acid secretion = settings: as oxalate; cited from earlier work
# [2] = test system: hypersecretion induced by dimaprit; assay: Antisecretory activity in the cat bearing a gastric fistula, dimaprit-induced hypersecretion (Emas et al.); assay type: in vivo; settings: cat with gastric fistula, intragastric
# Text: The antisecretoy activity of the products of the present invention has been evaluated in the cat bearing a gastric fistula according to the method of Emas et al (Gastroenterology, 1960, 39, 771) by using, as hypersecretory agent, dimaprit at the dose of 640 mcg/kg/k.
Relative potency (cimetidine = 1) [1],ED50 [1] [µmol/kg],SMILES,"ED50, gastric acid secretion inhibiting activity in the rat (gastric acid secretion) [mg/kg]",antagonism of the hypersecretion induced by dimaprit ([2]; an hour before dimaprit perfusion (640 mcg/kg/k)),"activity relative to cimetidine against hypersecretion induced by dimaprit ([2]; an hour before dimaprit perfusion, cimetidine as reference)"
4.13,0.23,"CNC(=C[N+](=O)[O-])Nc1cccc(C(=O)NCCSCc2ccc(CN(C)C)o2)c1 [SR 58028 A, 3-[N-(1-methylamino-2-nitroethenyl)amino]-N-[2-(5-dimethylaminomethylfuran-2-ylmethylthio)ethyl]benzamide]",,,
1.90,0.5,"CNC(=NC#N)Nc1cccc(C(=O)NCCSCc2ccc(CN(C)C)o2)c1 [SR 57970, 3-(2-cyano-3-methylguanidino)-N-[2-(5-dimethylaminomethylfuran-2-ylmethylthio)ethyl]benzamide]",,,
2.11,0.45,"CNC(=S)Nc1cccc(C(=O)NCCSCc2ccc(CN(C)C)o2)c1 [SR 57914, 3-(3-methylthioureido)-N-[2-(5-dimethylaminomethylfuran-2-ylmethylthio)ethyl]benzamide]",,antagonizes in dose depending way the hypersecretion induced by dimaprit,at least equal to that of cimetidine
0.62,1.53,"CNC(=O)Nc1cccc(C(=O)NCCSCc2ccc(CN(C)C)o2)c1 [SR 57934, 3-(3-methylureido)-N-[2-(5-dimethylaminomethylfuran-2-ylmethylthio)ethyl]benzamide]",,,

# More lines, now with the values behind:
SMILES,Relative potency (cimetidine = 1) [1],ED50 [1] [µmol/kg],"ED50, gastric acid secretion inhibiting activity in the rat (gastric acid secretion) [mg/kg]",antagonism of the hypersecretion induced by dimaprit ([2]; an hour before dimaprit perfusion (640 mcg/kg/k)),"activity relative to cimetidine against hypersecretion induced by dimaprit ([2]; an hour before dimaprit perfusion, cimetidine as reference)"
"CN(C)Cc1ccc(CSCCNC(=O)c2ccc(S(N)(=O)=O)cc2)o1 [Compound A, N-[2-(5-dimethylaminomethylfuran-2-ylmethylthio)ethyl]4-sulfamoylbenzamide, reference compound]",0.42,,2.54,,
"CNC(=C[N+](=O)[O-])NCCSCc1ccc(CN(C)C)o1 [Ranitidine, N-[2-[[5-[(dimethylamino)methyl]furfuryl]thio]ethyl]-N'-methyl-2-nitro-1,1-ethenediamine, reference compound]",3.80,,,,
